# Data taken from patent publication US10434167B2 (priority 2014, dated 2019).
# Test system: Human red blood cells
# Experiment: Hemolytic assay (hemolysis of red blood cells by QS-21/saponin with or without liposomes)
# Assay type: cell-based
# Settings: 22° C.
# Text: Hemolysis of red blood cells was used as a measure both of the relative amount of free QS-21, and of the toxicity of QS-21 under the indicated experimental conditions. Human red blood cells were purchased from the Research Blood Components LLC (Boston, Mass., USA) under a Walter Reed Army institute of Research protocol reviewed by the independent Institutional Review Board, Division of Human Subjects. Erythrocytes were washed with PBS and were quantified by a Beckman Coulter counter model ACT10 (Indianapolis Ind., USA). In each assay of this study, hemolytic activity of QS-21 incubated with or without liposomes was determined in 220 μl volume and each step of the assay was performed at room temperature (22° C.). One hundred microliters of QS-21 dilution was incubated with 100 μl of liposomes, or PBS only, on a Daigger Rocker (Vernon Hills, Ill., USA) for 15 minutes. After mixing the liposomes, 2×10^7 erythrocytes in 20 μl of PBS were added to the mixture and incubated on a Daigger Rocker for an additional 30 minutes. Plates were centrifuged at 800×g for 6 min. Supernatant was transferred to a polystyrene 96-well plate, and absorbance was read at 541 nm. Hemolysis by QS-21 binding to liposomal Chol was expressed as % of maximum hemolysis by free QS-21.
# The hemolytic activities of liposome compositions with QS-21 were characterized first by varying QS-21 concentration. […] Red blood cells were added to the mixture of liposome-QS-21, and incubated for 30 minutes. Free QS-21 served as positive control. Cells were centrifuged and the optical density of supernatant was measured at 541 nm to reflect the levels of hemolysis.
substance,measurement,setting,value
QS-21,amount of QS-21 causing maximum hemolysis,QS-21 pre-incubated with DMPC/DMPG liposomes (5 μmol phospholipids) containing 33.7 mol % Chol,approximately 4 μg
same,amount of QS-21 causing maximum hemolysis,QS-21 pre-incubated with DMPC/DMPG liposomes (5 μmol phospholipids) containing 43 mol % Chol,approximately 4 μg
same,amount of QS-21 up to which the hemolytic effect was completely blocked,QS-21 pre-incubated with DMPC/DMPG liposomes (5 μmol phospholipids) having 55 mol % Chol,≥ 200 µg
same,amount of QS-21 causing maximum hemolysis,"free QS-21, no liposomes",approximately 2 μg
